Test results taken from patent US4492693A, “Benzothienylglycyl cephalosporin derivatives” (priority 1983, dated 1985).
In brackets after ≈: the same amount, converted by molar mass. Read-outs that look alike come from different tables or passages of the source.

Legend:
Assay type in all cases: cell-based
[1] = tested on: Strep. A; experiment: Agar Dilution MIC (Table I); conditions: strain C203; read-out: Agar Dilution MIC
[2] = tested on: Strep. PN; experiment: Agar Dilution MIC (Table I); conditions: strain PARK
[3] = tested on: Strep. D; experiment: Agar Dilution MIC (Table I); conditions: read-out: Agar Dilution MIC
Text: (§1) A typical and preferred compound provided by this invention is 7-(3-benzothienyl)glycylamido-3-methyl-3-cephem-4-carboxylic acid, the compound illustrated in Example 9. The antibacterial activity of this compound has been determined in standard in vitro agar dilution assays against a variety of gram positive and gram negative microorganism. The following Tables present typical minimum inhibitory concentrations (MIC's) in μg/ml for several compounds of the invention when evaluated against the indicated microorganisms. MIC's for several known compounds are also presented for comparison.
Agar Dilution MIC (μg/ml)

[4] = tested on: H. influ.; experiment: Agar Dilution MIC (Table I); conditions: read-out: Agar Dilution MIC
[5] = tested on: E. coli; experiment: Agar Dilution MIC (Table I); conditions: Escherichia coli
[6] = tested on: Klebsiella; experiment: Agar Dilution MIC (Table I); conditions: Klebsiella, read-out: Agar Dilution MIC
[7] = tested on: H. influenzae; experiment: Expanded Spectrum MIC (Table II); conditions: Haemophilus influenzae
Text: as §1
(§2) Expanded Spectrum MIC (μg/ml)

[8] = tested on: Staph. aureus; experiment: Expanded Spectrum MIC (Table II); conditions: Staphylococcus aureus
Text: as §1, §2

[9] = tested on: Bacteroides corrodens; experiment: Susceptibility of Anaerobic Bacteroides Isolates by the Agar-Dilution Method (Table III); conditions: Eikenella corrodens; strain 1874; readings 24 hrs. after incubation
Text: as §1
(§3) Susceptibility of Anaerobic Bacteroides Isolates by the
(§4) Agar-Dilution Method MIC (μg/ml) readings 24 hrs. after incubation

[10] = tested on: Bacteroides fragilis; experiment: as above; conditions: 24 h
Text: as §1, §3, §4

[11] = tested on: Bacteroides thetaiotaomicron; experiment: as above; conditions: 24 h
Text: as §1, §3, §4

[12] = tested on: Staph. aureus; experiment: Agar Dilution MIC (Table I); conditions: Staphylococcus aureus, read-out: Agar Dilution MIC
[13] = tested on: Staph. epi; experiment: Agar Dilution MIC (Table I); conditions: read-out: Agar Dilution MIC
[14] = tested on: Staph. epi; experiment: Expanded Spectrum MIC (Table II)
Text: as §1, §2

[15] = strain 9, readings 24 hrs. after incubation
[16] = strain 103, readings 24 hrs. after incubation
[17] = strain 104, readings 24 hrs. after incubation
[18] = strain 106, readings 24 hrs. after incubation
[19] = strain 107, readings 24 hrs. after incubation
[20] = strain 108, readings 24 hrs. after incubation
[21] = strain 110, readings 24 hrs. after incubation
[22] = strain 111, readings 24 hrs. after incubation
[23] = strain 1877, readings 24 hrs. after incubation
[24] = strain 1438, readings 24 hrs. after incubation
[25] = strain 1900A, readings 24 hrs. after incubation

CC1=C(C(=O)O)N2C(=O)C(NC(=O)[C@H](N)c3csc4cccc(F)c34)C2SC1 (stereo partly drawn) [Ex. 19, D-7-(4-Fluoro-3-benzothienyl)glycylamido-3-methyl-3-cephem-4-carboxylic acid]
MIC [1]: 1 µg/mL (≈ 2.37 µM)
MIC [2]: 4 µg/mL (≈ 9.49 µM)
MIC ([3]; strain 2041): 128 µg/mL (≈ 304 µM)
MIC ([3]; strain X66): 128 µg/mL (≈ 304 µM)
MIC ([4]; strain 76): 4 µg/mL (≈ 9.49 µM)
MIC ([4]; strain C.L.): 16 µg/mL (≈ 38 µM)
MIC ([5]; strain EC14): 128 µg/mL (≈ 304 µM)
MIC ([5]; strain N10): 128 µg/mL (≈ 304 µM)
MIC ([5]; strain TEM): 128 µg/mL (≈ 304 µM)
MIC ([6]; strain KAE): 128 µg/mL (≈ 304 µM)
MIC ([6]; strain X26): 16 µg/mL (≈ 38 µM)
MIC ([6]; strain X68): 128 µg/mL (≈ 304 µM)
MIC ([7]; strain 76): 4 µg/mL (≈ 9.49 µM)
MIC ([7]; strain 105): 4 µg/mL (≈ 9.49 µM)
MIC ([7]; strain 158): 4 µg/mL (≈ 9.49 µM)
MIC ([7]; strain 164): 4 µg/mL (≈ 9.49 µM)
MIC ([7]; strain 169): 4 µg/mL (≈ 9.49 µM)
MIC ([7]; strain 171): 4 µg/mL (≈ 9.49 µM)
MIC ([7]; strain 312): 8 µg/mL (≈ 19 µM)
MIC ([7]; strain 1683): 2 µg/mL (≈ 4.75 µM)
MIC ([7]; strain 1930): 16 µg/mL (≈ 38 µM)
MIC ([7]; strain 4842): 8 µg/mL (≈ 19 µM)
MIC ([7]; strain C.L.): 16 µg/mL (≈ 38 µM)
MIC ([7]; strain HESS): 16 µg/mL (≈ 38 µM)
MIC ([7]; strain M366): 64 µg/mL (≈ 152 µM)
MIC ([7]; strain M370): 4 µg/mL (≈ 9.49 µM)
MIC ([7]; strain M371): 4 µg/mL (≈ 9.49 µM)
MIC ([7]; strain R465): 64 µg/mL (≈ 152 µM)
MIC ([7]; strain STEL): 64 µg/mL (≈ 152 µM)
MIC ([8]; strain S224): 4 µg/mL (≈ 9.49 µM)
MIC ([8]; strain S225): 4 µg/mL (≈ 9.49 µM)
MIC ([8]; strain S226): 4 µg/mL (≈ 9.49 µM)
MIC ([8]; strain S227): 4 µg/mL (≈ 9.49 µM)
MIC ([8]; strain S228): 4 µg/mL (≈ 9.49 µM)
MIC ([8]; strain S229): 8 µg/mL (≈ 19 µM)
MIC ([8]; strain S230): 4 µg/mL (≈ 9.49 µM)
MIC ([8]; strain S231): 2 µg/mL (≈ 4.75 µM)
MIC ([8]; strain S234): 4 µg/mL (≈ 9.49 µM)
MIC ([8]; strain S237): 4 µg/mL (≈ 9.49 µM)
MIC ([8]; strain S238): 8 µg/mL (≈ 19 µM)
MIC ([8]; strain S239): 8 µg/mL (≈ 19 µM)
MIC [9]: 32 µg/mL (≈ 75.9 µM)
MIC [10, 15]: 8 µg/mL (≈ 19 µM)
MIC [10, 16]: 32 µg/mL (≈ 75.9 µM)
MIC [10, 17]: 16 µg/mL (≈ 38 µM)
MIC [10, 18]: 8 µg/mL (≈ 19 µM)
MIC [10, 19]: 8 µg/mL (≈ 19 µM)
MIC [10, 20]: 16 µg/mL (≈ 38 µM)
MIC [10, 21]: 8 µg/mL (≈ 19 µM)
MIC [10, 22]: 64 µg/mL (≈ 152 µM)
MIC [10, 23]: 8 µg/mL (≈ 19 µM)
MIC [11, 24]: 16 µg/mL (≈ 38 µM)
MIC [11, 25]: 32 µg/mL (≈ 75.9 µM)

CON=C(C(=O)NC1C(=O)N2C(C(=O)O)=C(C)CSC12)c1csc2cc(OC)ccc12 (stereo not drawn) [Ex. 22]
MIC ([12]; strain V41): 8 µg/mL (≈ 17.3 µM)
MIC ([12]; strain X1.1): 1 µg/mL (≈ 2.17 µM)
MIC ([12]; strain X400): 64 µg/mL (≈ 139 µM)
MIC ([13]; strain 222): 4 µg/mL (≈ 8.67 µM)
MIC ([13]; strain EPI1): 8 µg/mL (≈ 17.3 µM)
MIC [1]: 0.5 µg/mL (≈ 1.08 µM)
MIC [2]: 0.5 µg/mL (≈ 1.08 µM)
MIC ([3]; strain 2041): 64 µg/mL (≈ 139 µM)
MIC ([3]; strain X66): 64 µg/mL (≈ 139 µM)
MIC ([4]; strain 76): 2 µg/mL (≈ 4.33 µM)
MIC ([4]; strain C.L.): 8 µg/mL (≈ 17.3 µM)
MIC ([5]; strain EC14): 64 µg/mL (≈ 139 µM)
MIC ([5]; strain N10): 128 µg/mL (≈ 277 µM)
MIC ([5]; strain TEM): 128 µg/mL (≈ 277 µM)
MIC ([6]; strain KAE): 128 µg/mL (≈ 277 µM)
MIC ([6]; strain X26): 1 µg/mL (≈ 2.17 µM)
MIC ([6]; strain X68): 128 µg/mL (≈ 277 µM)
MIC ([7]; strain 76): 1 µg/mL (≈ 2.17 µM)
MIC ([7]; strain 105): 2 µg/mL (≈ 4.33 µM)
MIC ([7]; strain 158): 1 µg/mL (≈ 2.17 µM)
MIC ([7]; strain 164): 1 µg/mL (≈ 2.17 µM)
MIC ([7]; strain 169): 2 µg/mL (≈ 4.33 µM)
MIC ([7]; strain 171): 2 µg/mL (≈ 4.33 µM)
MIC ([7]; strain 312): 1 µg/mL (≈ 2.17 µM)
MIC ([7]; strain 1683): 0.5 µg/mL (≈ 1.08 µM)
MIC ([7]; strain 1930): 1 µg/mL (≈ 2.17 µM)
MIC ([7]; strain 4842): 1 µg/mL (≈ 2.17 µM)
MIC ([7]; strain C.L.): 4 µg/mL (≈ 8.67 µM)
MIC ([7]; strain HESS): 4 µg/mL (≈ 8.67 µM)
MIC ([7]; strain M366): 64 µg/mL (≈ 139 µM)
MIC ([7]; strain M370): 1 µg/mL (≈ 2.17 µM)
MIC ([7]; strain M371): 2 µg/mL (≈ 4.33 µM)
MIC ([7]; strain R465): 2 µg/mL (≈ 4.33 µM)
MIC ([7]; strain STEL): 64 µg/mL (≈ 139 µM)
MIC ([8]; strain S224): 2 µg/mL (≈ 4.33 µM)
MIC ([8]; strain S225): 2 µg/mL (≈ 4.33 µM)
MIC ([8]; strain S226): 2 µg/mL (≈ 4.33 µM)
MIC ([8]; strain S227): 2 µg/mL (≈ 4.33 µM)
MIC ([8]; strain S228): 2 µg/mL (≈ 4.33 µM)
MIC ([8]; strain S229): 4 µg/mL (≈ 8.67 µM)
MIC ([8]; strain S230): 2 µg/mL (≈ 4.33 µM)
MIC ([8]; strain S231): 1 µg/mL (≈ 2.17 µM)
MIC ([8]; strain S234): 2 µg/mL (≈ 4.33 µM)
MIC ([8]; strain S237): 2 µg/mL (≈ 4.33 µM)
MIC ([8]; strain S238): 4 µg/mL (≈ 8.67 µM)
MIC ([8]; strain S239): 2 µg/mL (≈ 4.33 µM)
MIC ([14]; strain 219): 2 µg/mL (≈ 4.33 µM)
MIC ([14]; strain 269): 4 µg/mL (≈ 8.67 µM)
MIC ([14]; strain 270): 8 µg/mL (≈ 17.3 µM)
MIC ([14]; strain 285): 4 µg/mL (≈ 8.67 µM)
MIC ([14]; strain 286): 1 µg/mL (≈ 2.17 µM)
MIC ([14]; strain EPI1): 16 µg/mL (≈ 34.7 µM)

CO[C@@]1(NC(=O)C(C(=O)O)c2ccc(O)cc2)C(=O)N2C(C(=O)O)=C(CSc3nnnn3C)CO[C@@H]21 (stereo partly drawn) [moxalactam, reference compound]
MIC [9]: 8 µg/mL (≈ 15.4 µM)
MIC [10, 15]: 0.5 µg/mL (≈ 0.961 µM)
MIC [10, 16]: 4 µg/mL (≈ 7.69 µM)
MIC [10, 17]: 0.5 µg/mL (≈ 0.961 µM)
MIC [10, 18]: 1 µg/mL (≈ 1.92 µM)
MIC [10, 19]: 1 µg/mL (≈ 1.92 µM)
MIC [10, 20]: 0.5 µg/mL (≈ 0.961 µM)
MIC [10, 21]: 0.5 µg/mL (≈ 0.961 µM)
MIC [10, 22]: 8 µg/mL (≈ 15.4 µM)
MIC [10, 23]: 2 µg/mL (≈ 3.84 µM)
MIC [11, 24]: 2 µg/mL (≈ 3.84 µM)
MIC [11, 25]: 64 µg/mL (≈ 123 µM)
